Converted amounts (≈) assume the structure as drawn. The source made the active and inactive calls. The rule behind the calls is not given here. Peptide text beside a SMILES is read from it.
Key:
Staphylococcus aureus [1] = assay: Antibacterial activity against Staphylococcus aureus ATCC 29213 incubated overnight by standard microtiter dilution method; format: functional
Staphylococcus aureus [2] = assay: Antibacterial activity against methicillin-resistant Staphylococcus aureus ATCC 43300 incubated overnight by standard microtiter dilution method; format: functional
[3] = tested on: Staphylococcus epidermidis; assay: Antibacterial activity against methicillin-resistant Staphylococcus epidermidis ATCC 12228 incubated overnight by standard microtiter dilution method; format: functional
Enterococcus faecalis = assay: Antibacterial activity against Enterococcus faecalis ATCC 29212 incubated overnight by standard microtiter dilution method; format: functional
Escherichia coli = assay: Antibacterial activity against Escherichia coli O157:H7 CICC 21530 incubated overnight by standard microtiter dilution method; format: functional
Salmonella paratyphi = assay: Antibacterial activity against Salmonella paratyphi A CICC 21501 incubated overnight by standard microtiter dilution method; format: functional, Salmonella enterica subsp. enterica serovar Paratyphi A; conditions: Salmonella enterica
[4] = tested on: Salmonella enterica subsp. enterica serovar Paratyphi B; assay: Antibacterial activity against Salmonella paratyphi B CICC 21495 incubated overnight by standard microtiter dilution method; format: functional
[5] = Antibacterial activity against Salmonella paratyphi C CICC 21512 incubated overnight by standard microtiter dilution method; format: functional, Salmonella enterica subsp. enterica serovar Paratyphi C; conditions: Salmonella enterica
[6] = Antibacterial activity against Salmonella enterica subsp. enterica serovar Choleraesuis ATCC 13312 incubated overnight by standard microtiter dilution method; format: functional
[7] = Antibacterial activity against Salmonella enterica subsp. enterica serovar Choleraesuis CICC 21493 incubated overnight by standard microtiter dilution method; format: functional
Salmonella enteritidis = assay: Antibacterial activity against Salmonella enteritidis CICC 21527 incubated overnight by standard microtiter dilution method; format: functional, Salmonella enterica subsp. enterica serovar Enteritidis; conditions: Salmonella enterica
[8] = Antibacterial activity against Salmonella wandsworth CICC 21504 incubated overnight by standard microtiter dilution method; format: functional, Salmonella enterica subsp. enterica serovar Wandsworth; conditions: Salmonella enterica
Salmonella typhimurium [9] = assay: Antibacterial activity against Salmonella typhimurium CICC 21483 incubated overnight by standard microtiter dilution method; format: functional, Salmonella enterica subsp. enterica serovar Typhimurium; conditions: Salmonella enterica
Salmonella typhimurium [10] = assay: Antibacterial activity against Salmonella typhimurium CICC 21913 incubated overnight by standard microtiter dilution method; format: functional, Salmonella enterica subsp. enterica serovar Typhimurium; conditions: Salmonella enterica
[11] = Antibacterial activity against Salmonella blockley CICC 21489 incubated overnight by standard microtiter dilution method; format: functional, Salmonella enterica subsp. enterica serovar Blockley; conditions: Salmonella enterica
[12] = Antibacterial activity against Salmonella dublin CICC 21497 incubated overnight by standard microtiter dilution method; format: functional, Salmonella enterica subsp. enterica serovar Dublin; conditions: Salmonella enterica
Salmonella typhimurium [13] = assay: Antibacterial activity against Salmonella typhimurium DT104 ATCC 700408 incubated overnight by standard microtiter dilution method; format: functional, Salmonella enterica subsp. enterica serovar Typhimurium; conditions: Salmonella enterica
Candida albicans = assay: Antifungal activity against Candida albicans ATCC 10231 incubated overnight by standard microtiter dilution method; format: functional
Erythrocyte = assay: Hemolytic activity in human Red blood cells assessed as hemolysis incubated for 1 hrs by absorbance based microplate reader analysis; format: toxicity, cell-based
Salmonella typhimurium [14] = assay: Antibacterial activity against Salmonella typhimurium DT104 in the presence of NaCl by MH broth based assay; format: functional, Salmonella enterica subsp. enterica serovar Typhimurium; conditions: Salmonella enterica
Salmonella typhimurium [15] = assay: Antibacterial activity against Salmonella typhimurium DT104 in the presence of KCl by MH broth based assay; format: functional, Salmonella enterica subsp. enterica serovar Typhimurium; conditions: Salmonella enterica
Salmonella typhimurium [16] = assay: Antibacterial activity against Salmonella typhimurium DT104 in the presence of NH4Cl by MH broth based assay; format: functional, Salmonella enterica subsp. enterica serovar Typhimurium; conditions: Salmonella enterica
Salmonella typhimurium [17] = assay: Antibacterial activity against Salmonella typhimurium DT104 in the presence of CaCl2 by MH broth based assay; format: functional, Salmonella enterica subsp. enterica serovar Typhimurium; conditions: Salmonella enterica
Salmonella typhimurium [18] = assay: Antibacterial activity against Salmonella typhimurium DT104 in the presence of MgCl2 by MH broth based assay; format: functional, Salmonella enterica subsp. enterica serovar Typhimurium; conditions: Salmonella enterica
Salmonella typhimurium [19] = assay: Antibacterial activity against Salmonella typhimurium DT104 in the presence of FeCl3 by MH broth based assay; format: functional, Salmonella enterica subsp. enterica serovar Typhimurium; conditions: Salmonella enterica
Salmonella typhimurium [20] = assay: Antibacterial activity against Salmonella typhimurium DT104 in the presence 25% inactivated mouse serum by MH broth based assay; format: functional, Salmonella enterica subsp. enterica serovar Typhimurium; conditions: Salmonella enterica
Salmonella typhimurium [21] = assay: Antibacterial activity against Salmonella typhimurium DT104 in the presence 50% inactivated mouse serum by MH broth based assay; format: functional, Salmonella enterica subsp. enterica serovar Typhimurium; conditions: Salmonella enterica
[22] = Hemolytic activity in human Red blood cells assessed as hemolysis at 128 ug/ml incubated for 1 hrs by absorbance based microplate reader analysis relative to control; format: toxicity, cell-based, Erythrocyte; conditions: red blood cells (erythrocytes), at 128 µg/mL, read-out: Activity
Lipopolysaccharide (LPS) = assay: Displacement of BODIPY-TR-cadaverine from Salmonella typhimurium LPS assessed as increase in fluorescence intensity by fluorescence spectrophotometric analysis; conditions: Salmonella enterica subsp. enterica serovar Typhimurium; dose 0.25-8 µg/ml
RAW264.7 [23] = assay: Inhibition of LPS-stimulated NO production in mouse RAW264.7 cells incubated for 24 hrs by Griess reagent based analysis; format: functional, cell-based; conditions: dose 1-128 µg/ml
RAW264.7 [24] = assay: Inhibition of LPS-stimulated TNF-alpha production in mouse RAW264.7 cells at 1 to 128 ug/ml incubated for 24 hrs by ELISA analysis; format: functional, cell-based; conditions: dose 1-128 µg/ml
RAW264.7 [25] = assay: Inhibition of LPS-stimulated IL-1beta production in mouse RAW264.7 cells at 1 to 128 ug/ml incubated for 24 hrs by ELISA analysis; format: functional, cell-based; conditions: dose 1-128 µg/ml
RAW264.7 [26] = assay: Inhibition of LPS-stimulated IL-8 production in mouse RAW264.7 cells at 1 to 128 ug/ml incubated for 24 hrs by ELISA analysis; format: functional, cell-based; conditions: dose 1-128 µg/ml
Cell membrane = assay: Disruption of membrane integrity in Salmonella typhimurium DT104 assessed as increase in fluorescence intensity at 0.5 to 2 times of MIC incubated for 15 mins by PI staining based flow cytometric analysis; format: subcellular; conditions: Salmonella enterica subsp. enterica serovar Typhimurium

Structure (SMILES)	MIC (Staphylococcus aureus [1])	MIC (Staphylococcus aureus [2])	MIC [3]	MIC (Enterococcus faecalis)	MIC (Escherichia coli)	MIC (Salmonella paratyphi)	MIC [4]	MIC [5]	MIC [6]	MIC [7]	MIC (Salmonella enteritidis)	MIC [8]	MIC (Salmonella typhimurium [9])	MIC (Salmonella typhimurium [10])	MIC [11]	MIC [12]	MIC (Salmonella typhimurium [13])	MIC (Candida albicans)	MHC (Erythrocyte)	MIC (Salmonella typhimurium [14])	further results
CC(C)[C@H](N)C(=O)N[C@@H](CCCCN)C(=O)N[C@@H](CS)C(=O)N[C@H](C(=O)N[C@@H](CCCCN)C(=O)N[C@@H](CO)C(=O)NCC(=O)N[C@@H](CS)C(=O)N[C@@H](CCCCN)C(=O)N[C@H](C(N)=O)C(C)C)[C@@H](C)O (H-VKCTKSGCKV-NH2)	> 128 µg/mL	> 128 µg/mL	> 128 µg/mL	32 µg/mL (≈ 30.4 µM)	> 128 µg/mL	> 128 µg/mL	> 128 µg/mL	> 128 µg/mL	> 128 µg/mL	> 128 µg/mL	> 128 µg/mL	> 128 µg/mL	> 128 µg/mL	> 128 µg/mL	> 128 µg/mL	> 128 µg/mL	> 128 µg/mL	> 128 µg/mL	> 128 µg/mL	> 128 µg/mL	MIC (Salmonella typhimurium [15]): > 128 µg/mL; MIC (Salmonella typhimurium [16]): > 128 µg/mL; MIC (Salmonella typhimurium [17]): > 128 µg/mL; MIC (Salmonella typhimurium [18]): > 128 µg/mL; MIC (Salmonella typhimurium [19]): > 128 µg/mL; MIC (Salmonella typhimurium [20]): > 128 µg/mL; MIC (Salmonella typhimurium [21]): > 128 µg/mL; hemolysis at 1 h, 128 ug/ml [22]: < 10%; Activity (Lipopolysaccharide (LPS)): Dose-Dependent Effect; inhibition (RAW264.7 [23]): Dose-Dependent Effect; inhibition (RAW264.7 [24]): Active; inhibition (RAW264.7 [25]): Active; inhibition (RAW264.7 [26]): Active
CC(C)[C@H](N)C(=O)N[C@@H](CCCCN)C(=O)N[C@H](C(=O)N[C@@H](CCCCN)C(=O)N[C@@H](CS)C(=O)N[C@H](C(=O)N[C@@H](CCCCN)C(=O)N[C@@H](CO)C(=O)NCC(=O)N[C@@H](CS)C(=O)N[C@@H](CCCCN)C(=O)N[C@H](C(=O)N[C@@H](CCCCN)C(=O)N[C@H](C(N)=O)C(C)C)C(C)C)[C@@H](C)O)C(C)C (H-VKVKCTKSGCKVKV-NH2)	> 128 µg/mL	> 128 µg/mL	> 128 µg/mL	> 128 µg/mL	64 µg/mL (≈ 42.5 µM)	> 128 µg/mL	16 µg/mL (≈ 10.6 µM)	64 µg/mL (≈ 42.5 µM)	4 µg/mL (≈ 2.66 µM)	> 128 µg/mL	> 128 µg/mL	> 128 µg/mL	> 128 µg/mL	> 128 µg/mL	> 128 µg/mL	> 128 µg/mL	> 128 µg/mL	16 µg/mL (≈ 10.6 µM)	> 128 µg/mL	> 128 µg/mL	MIC (Salmonella typhimurium [15]): > 128 µg/mL; MIC (Salmonella typhimurium [16]): > 128 µg/mL; MIC (Salmonella typhimurium [17]): > 128 µg/mL; MIC (Salmonella typhimurium [18]): > 128 µg/mL; MIC (Salmonella typhimurium [19]): > 128 µg/mL; MIC (Salmonella typhimurium [20]): > 128 µg/mL; MIC (Salmonella typhimurium [21]): > 128 µg/mL; hemolysis at 1 h, 128 ug/ml [22]: < 10%; Activity (Lipopolysaccharide (LPS)): Dose-Dependent Effect; inhibition (RAW264.7 [23]): Dose-Dependent Effect; inhibition (RAW264.7 [24]): Active; inhibition (RAW264.7 [25]): Active; inhibition (RAW264.7 [26]): Active; Activity (Cell membrane): Active
C[C@@H](O)[C@H](NC(=O)[C@H](CS)NC(=O)[C@H](CCCCN)NC(=O)[C@@H](N)Cc1c[nH]c2ccccc12)C(=O)N[C@@H](CCCCN)C(=O)N[C@@H](CO)C(=O)NCC(=O)N[C@@H](CS)C(=O)N[C@@H](CCCCN)C(=O)N[C@@H](Cc1c[nH]c2ccccc12)C(N)=O (H-WKCTKSGCKW-NH2)	> 128 µg/mL	> 128 µg/mL	128 µg/mL (≈ 104 µM)	128 µg/mL (≈ 104 µM)	64 µg/mL (≈ 52.2 µM)	128 µg/mL (≈ 104 µM)	16 µg/mL (≈ 13.1 µM)	64 µg/mL (≈ 52.2 µM)	8 µg/mL (≈ 6.53 µM)	> 128 µg/mL	> 128 µg/mL	64 µg/mL (≈ 52.2 µM)	> 128 µg/mL	> 128 µg/mL	> 128 µg/mL	> 128 µg/mL	> 128 µg/mL	64 µg/mL (≈ 52.2 µM)	> 128 µg/mL	> 128 µg/mL	MIC (Salmonella typhimurium [15]): > 128 µg/mL; MIC (Salmonella typhimurium [16]): > 128 µg/mL; MIC (Salmonella typhimurium [17]): > 128 µg/mL; MIC (Salmonella typhimurium [18]): > 128 µg/mL; MIC (Salmonella typhimurium [19]): > 128 µg/mL; MIC (Salmonella typhimurium [20]): > 128 µg/mL; MIC (Salmonella typhimurium [21]): > 128 µg/mL; hemolysis at 1 h, 128 ug/ml [22]: < 10%; Activity (Lipopolysaccharide (LPS)): Dose-Dependent Effect; inhibition (RAW264.7 [23]): Dose-Dependent Effect; inhibition (RAW264.7 [24]): Active; inhibition (RAW264.7 [25]): Active; inhibition (RAW264.7 [26]): Active
[H]/N=C(/N)N[C@H]1[C@H](O)[C@@H](O)[C@H](O[C@@H]2O[C@@H](C)[C@](O)(C=O)[C@H]2O[C@@H]2O[C@@H](CO)[C@H](O)[C@@H](O)[C@@H]2NC)[C@@H](N/C(N)=N\[H])[C@@H]1O [STREPTOMYCIN]	–	–	–	–	–	–	–	–	–	–	–	–	–	–	–	–	–	–	> 128 µg/mL	–	–

Reference: ChEMBL document CHEMBL5352429, “Designed symmetrical β-hairpin peptides for treating multidrug-resistant salmonella typhimurium infections” (Eur J Med Chem, 2022)
